Reference: patent publication US10414760B2, “Cytochrome P450 inhibitors and uses thereof” (ANGION BIOMEDICA CORP., priority 2016, dated 2019)

Tests used:
CYP26 [1] = target: T1, CYP26 (Homo sapiens, UniProt O43174); details: human recombinant enzyme; read-out: Km reported for the human recombinant enzyme; cited from earlier work
T1 sequence (O43174 1-497): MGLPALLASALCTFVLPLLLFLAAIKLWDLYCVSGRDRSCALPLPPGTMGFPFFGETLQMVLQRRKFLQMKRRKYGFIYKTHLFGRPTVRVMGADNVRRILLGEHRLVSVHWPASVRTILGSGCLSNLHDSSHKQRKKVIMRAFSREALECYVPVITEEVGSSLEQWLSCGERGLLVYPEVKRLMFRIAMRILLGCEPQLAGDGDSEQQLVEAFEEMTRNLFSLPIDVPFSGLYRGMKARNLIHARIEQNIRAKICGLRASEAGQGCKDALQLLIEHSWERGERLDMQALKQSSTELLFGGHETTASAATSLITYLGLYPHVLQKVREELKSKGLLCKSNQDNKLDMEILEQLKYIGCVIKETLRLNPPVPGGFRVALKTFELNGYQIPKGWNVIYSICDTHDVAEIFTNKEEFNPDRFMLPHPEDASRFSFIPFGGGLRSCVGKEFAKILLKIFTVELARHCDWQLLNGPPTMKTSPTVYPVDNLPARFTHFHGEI

CYP26 [2] = target: T2, CYP26 (Mus musculus, UniProt O55127); assay: CYP26 inhibition: substrate depletion assay for ATRA metabolism in mouse microsomes; type: biochemical
T2 construct: tissue Xenotech; host or cells: liver microsomes of ATRA-treated mice
T2 sequence (O55127 1-497): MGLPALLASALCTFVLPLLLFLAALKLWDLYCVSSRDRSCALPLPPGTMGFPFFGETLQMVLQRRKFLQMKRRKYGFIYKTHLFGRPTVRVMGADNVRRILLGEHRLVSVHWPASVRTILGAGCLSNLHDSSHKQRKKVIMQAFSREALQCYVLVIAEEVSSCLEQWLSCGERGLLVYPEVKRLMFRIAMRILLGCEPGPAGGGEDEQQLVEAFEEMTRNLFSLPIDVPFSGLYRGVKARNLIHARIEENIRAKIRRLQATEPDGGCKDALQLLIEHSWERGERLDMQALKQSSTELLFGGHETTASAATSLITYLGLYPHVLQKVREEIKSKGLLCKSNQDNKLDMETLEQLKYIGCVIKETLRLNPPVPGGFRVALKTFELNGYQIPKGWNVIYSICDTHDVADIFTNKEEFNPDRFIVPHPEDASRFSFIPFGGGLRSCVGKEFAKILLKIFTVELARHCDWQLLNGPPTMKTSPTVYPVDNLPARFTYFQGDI
Protocol: (§1) Serum Testosterone and PSA and Tumor Testosterone Analysis. Tumor tissue obtained from mice will be homogenized in phosphate buffer (pH 7.4, 0.1 M) and homogenates centrifuged at 2000 g for 20 min. Testosterone concentrations in the serum and in the clear tissue homogenate supernatant will be determined with the ELISA kit from R&D Systems (Catalog # KGR010). Serum PSA concentrations will be measured using a PSA ELISA kit with a serum dilution according to the manufacturers instructions. • c. Breast cancer. To test the efficacy of compounds embodied herein against breast cancer, nude mice carrying human breast cancer lines that are estrogen receptor and Aromatase positive will be used. Cells will be grown in vitro and 2 million will be inoculated in Matrigel (50:50 volume ratio of cells to Matrigel). Cells will be distributed by s.c. injection at the right and left flanks or at the orthotopic sitest in 6 to 8 week old athymic nude mice (BALB/c strain) or severe combined immunodeficient mice under anesthesia. Animals will be treated with compound for 4 weeks, at which point animals will be sacrificed and collect blood samples and tumor tissue for the determination of serum and tumor estrogen levels. Tumors will be excised and a portion will be fixed in formalin for subsequent histochemical and immuno-histochemical analysis. The remainder will be snap frozen in liquid nitrogen and stored at −80° C. • 12. CYP26 inhibition activity. A substrate depletion assay for ATRA metabolism in mouse microsomes is used. […] The assay is run in a 100 μL reaction volume and stopped with an equal volume of methanol. […] CYP17 inhibition assay: In vitro assays for CYP17 17α-hydroxylase and C17,20-lyase activity, assays using rat and dog testis microsomes and ELISA kits from commercial vendors for the detection of formed products are employed. Incubation of rat testis microsomes with the substrate progesterone (P4) results, through the CYP17 17α-hydroxylase and C17,20-lyase activities, in a marked production of androstenedione (AD) in a time and enzyme-concentration dependent manner. […] In another control, microsomes isolated from rat livers, which are known to express very little or no CYP17, are shown to be devoid of this activity. Assays are also used that determine the activity of 17α-hydroxylase activity using P4 as a substrate and detecting HOP4 as a product (using dog testis microsomes) and the activity of C17,20-lyase by using HOP4 as a substrate and AD as a product (rat testis microsomes). • 14. CYP19 inhibition assay: For in vitro assays of CYP19 aromatase activity, commercially available CYP19 enzyme preparations (e.g. BD Gentest Supersomes Catalog #456260) and assay kits (e.g. BD Gentest Catalog #459520) are employed according to the manufacturers instructions.
CYP26 inhibition. […] The assay was run in a 100 μL reaction volume and stopped with an equal volume of methanol. […] Other compounds of formula (I) are similarly potent, for example with an IC50 of 1.6 nM.

CYP17 = target: T3, CYP17 (Rattus norvegicus, UniProt P11715); assay: CYP17 inhibition: 17α hydroxylase and C17,20 lyase activity in testis microsomes, ELISA detection; type: biochemical; details: which microsome assay (rat or dog testis) not specified
T3 construct: using rat and dog testis microsomes and ELISA kits from commercial vendors; from tissue; host or cells: rat testis microsomes
T3 sequence (P11715 1-507): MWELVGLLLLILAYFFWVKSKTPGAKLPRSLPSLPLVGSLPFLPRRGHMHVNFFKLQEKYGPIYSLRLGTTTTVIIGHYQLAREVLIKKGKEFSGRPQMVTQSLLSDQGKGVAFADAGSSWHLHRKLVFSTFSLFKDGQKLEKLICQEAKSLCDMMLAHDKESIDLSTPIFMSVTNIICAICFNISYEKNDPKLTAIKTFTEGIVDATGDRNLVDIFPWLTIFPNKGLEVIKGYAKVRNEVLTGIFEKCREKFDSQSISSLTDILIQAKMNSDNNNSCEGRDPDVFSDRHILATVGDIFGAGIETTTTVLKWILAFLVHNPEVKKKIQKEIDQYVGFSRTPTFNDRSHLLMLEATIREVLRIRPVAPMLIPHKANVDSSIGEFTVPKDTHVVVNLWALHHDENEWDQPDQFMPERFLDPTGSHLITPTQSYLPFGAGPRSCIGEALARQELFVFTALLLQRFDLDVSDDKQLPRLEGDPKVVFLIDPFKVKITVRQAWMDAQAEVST
Protocol: Serum Testosterone and PSA and Tumor Testosterone Analysis. Tumor tissue obtained from mice will be homogenized in phosphate buffer (pH 7.4, 0.1 M) and homogenates centrifuged at 2000 g for 20 min. Testosterone concentrations in the serum and in the clear tissue homogenate supernatant will be determined with the ELISA kit from R&D Systems (Catalog # KGR010). Serum PSA concentrations will be measured using a PSA ELISA kit with a serum dilution according to the manufacturers instructions. • c. Breast cancer. To test the efficacy of compounds embodied herein against breast cancer, nude mice carrying human breast cancer lines that are estrogen receptor and Aromatase positive will be used. Cells will be grown in vitro and 2 million will be inoculated in Matrigel (50:50 volume ratio of cells to Matrigel). Cells will be distributed by s.c. injection at the right and left flanks or at the orthotopic sitest in 6 to 8 week old athymic nude mice (BALB/c strain) or severe combined immunodeficient mice under anesthesia. Animals will be treated with compound for 4 weeks, at which point animals will be sacrificed and collect blood samples and tumor tissue for the determination of serum and tumor estrogen levels. Tumors will be excised and a portion will be fixed in formalin for subsequent histochemical and immuno-histochemical analysis. The remainder will be snap frozen in liquid nitrogen and stored at −80° C. • 12. CYP26 inhibition activity. […] The assay is run in a 100 μL reaction volume and stopped with an equal volume of methanol. […] CYP17 inhibition assay: In vitro assays for CYP17 17α-hydroxylase and C17,20-lyase activity, assays using rat and dog testis microsomes and ELISA kits from commercial vendors for the detection of formed products are employed. […] Assays are also used that determine the activity of 17α-hydroxylase activity using P4 as a substrate and detecting HOP4 as a product (using dog testis microsomes) and the activity of C17,20-lyase by using HOP4 as a substrate and AD as a product (rat testis microsomes). • 14.
CYP17 inhibition. In vitro assays for CYP17 17α hydroxylase and C17,20 lyase activity using rat and dog testis microsomes and ELISA kits from commercial vendors for the detection of formed products were employed. […] Assays were also used that determine the activity of 17α hydroxylase activity using P4 as a substrate and detecting HOP4 as a product (using dog testis microsomes) and the activity of C17,20 lyase by using HOP4 as a substrate and AD as a product (rat testis microsomes).

CYP19 = target: T4, CYP19 (Homo sapiens, UniProt P11511); assay: CYP19 inhibition: commercially available recombinant enzyme and assay kit; type: biochemical
T4 construct: purchased BD Gentest 456260
T4 sequence (P11511 1-503): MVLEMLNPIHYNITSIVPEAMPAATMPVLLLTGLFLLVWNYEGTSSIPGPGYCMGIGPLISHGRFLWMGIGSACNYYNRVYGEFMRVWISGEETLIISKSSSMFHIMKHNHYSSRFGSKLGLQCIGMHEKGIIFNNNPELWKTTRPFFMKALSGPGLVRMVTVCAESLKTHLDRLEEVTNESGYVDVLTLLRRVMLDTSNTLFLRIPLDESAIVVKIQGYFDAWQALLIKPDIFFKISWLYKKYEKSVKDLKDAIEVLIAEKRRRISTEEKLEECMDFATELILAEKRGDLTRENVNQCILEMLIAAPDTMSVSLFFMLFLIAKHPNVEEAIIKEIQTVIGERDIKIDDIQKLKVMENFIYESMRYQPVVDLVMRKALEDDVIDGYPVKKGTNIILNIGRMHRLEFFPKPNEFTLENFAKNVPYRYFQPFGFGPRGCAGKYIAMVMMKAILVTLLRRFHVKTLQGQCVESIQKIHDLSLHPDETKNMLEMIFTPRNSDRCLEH
Protocol: as §1
Selectivity for other P450 enzymes. To assess the selectivity of compounds embodied herein, activity was evaluated first against CYP3A4 and CYP19 using commercially available recombinant enzymes and assay kits. To calculate a selectivity factor, the IC50 for a particular P450 enzyme was divided by the IC50 in the CYP17 combination assay.

[3] = substrate: CC1=C(/C=C/C(C)=C/C=C/C(C)=C/C(=O)O)C(C)(C)CCC1; assay: cells, lysate or membranes named; details: other: induced mouse microsomes; pH 7.4

Question: Which Km (CYP26 [1]) does the source give for `CC1=C(/C=C/C(C)=C/C=C/C(C)=C/C(=O)O)C(C)(C)CCC1` [ATRA, all-trans retinoic acid] here?
Answer: ~0.01 µM

Question: For `CCC(C(c1ccc2nc(N)sc2c1)n1ccnc1)N(C)C` (centres unmarked) [Example 1, 6-(2-(Dimethylamino)-1-(1H-imidazol-1-yl)butyl)benzo[d]thiazol-2-amine], which IC50 (CYP26 [2]) is on record?
Answer: < 1000 nM

Question: And the IC50 (CYP17)?
Answer: < 5000 nM

Question: What about the IC50 (CYP19) of the same molecule?
Answer: < 1000 nM

Question: Which results are given for `CCC(C(c1ccc2nc(Br)sc2c1)n1ccnc1)N(C)C` (centres unmarked) [Example 8, 1-(2-Bromobenzo[d]thiazol-6-yl)-1-(1H-imidazol-1-yl)-N,N-dimethylbutan-2-amine]?
Answer: IC50 (CYP26 [2]): < 1000 nM; IC50 (CYP17): < 5000 nM; IC50 (CYP19): < 1000 nM

B1: CYP26 (Mus musculus) (protein)
chain: MGLPALLASALCTFVLPLLLFLAALKLWDLYCVSSRDRSCALPLPPGTMGFPFFGETLQMVLQRRKFLQMKRRKYGFIYKTHLFGRPTVRVMGADNVRRILLGEHRLVSVHWPASVRTILGAGCLSNLHDSSHKQRKKVIMQAFSREALQCYVLVIAEEVSSCLEQWLSCGERGLLVYPEVKRLMFRIAMRILLGCEPGPAGGGEDEQQLVEAFEEMTRNLFSLPIDVPFSGLYRGVKARNLIHARIEENIRAKIRRLQATEPDGGCKDALQLLIEHSWERGERLDMQALKQSSTELLFGGHETTASAATSLITYLGLYPHVLQKVREEIKSKGLLCKSNQDNKLDMETLEQLKYIGCVIKETLRLNPPVPGGFRVALKTFELNGYQIPKGWNVIYSICDTHDVADIFTNKEEFNPDRFIVPHPEDASRFSFIPFGGGLRSCVGKEFAKILLKIFTVELARHCDWQLLNGPPTMKTSPTVYPVDNLPARFTYFQGDI
Question: For B1, which Km [3] is on record?
Answer: 0.004 µM
